Assay results as given in patent publication US12180176B2, “Fluorinated empathogens” (priority 2021, dated 2024).

Assays:
[1] = human psychoactivity, literature; cited from earlier work
SERT = SERT (Homo sapiens, UniProt P31645); conditions: functional assay; cited from earlier work
[2] = Metabolic stability in human liver microsomes; format: in vitro ADME
Excerpt: Purpose: To determine the metabolic stability of a disclosed compound relative to its corresponding non-fluorinated analog. Metabolic stability assays measure the intrinsic clearance (CLint) of a compound, providing critical data needed to calculate other key pharmacokinetic parameters such as bioavailability and half-life (t1/2).
Methods: A high-throughput assay was used to determine metabolic stability of disclosed compounds and non-fluorinated analogs thereof in human liver microsomes. LC/MS analysis was used to quantify the percent compound remaining after incubation. The half-life (t1/2) was estimated from the slope of the initial linear range of the logarithmic curve of compound remaining (%) versus time, assuming first order kinetics.

Sequence of SERT (P31645 whole entry, species assumed): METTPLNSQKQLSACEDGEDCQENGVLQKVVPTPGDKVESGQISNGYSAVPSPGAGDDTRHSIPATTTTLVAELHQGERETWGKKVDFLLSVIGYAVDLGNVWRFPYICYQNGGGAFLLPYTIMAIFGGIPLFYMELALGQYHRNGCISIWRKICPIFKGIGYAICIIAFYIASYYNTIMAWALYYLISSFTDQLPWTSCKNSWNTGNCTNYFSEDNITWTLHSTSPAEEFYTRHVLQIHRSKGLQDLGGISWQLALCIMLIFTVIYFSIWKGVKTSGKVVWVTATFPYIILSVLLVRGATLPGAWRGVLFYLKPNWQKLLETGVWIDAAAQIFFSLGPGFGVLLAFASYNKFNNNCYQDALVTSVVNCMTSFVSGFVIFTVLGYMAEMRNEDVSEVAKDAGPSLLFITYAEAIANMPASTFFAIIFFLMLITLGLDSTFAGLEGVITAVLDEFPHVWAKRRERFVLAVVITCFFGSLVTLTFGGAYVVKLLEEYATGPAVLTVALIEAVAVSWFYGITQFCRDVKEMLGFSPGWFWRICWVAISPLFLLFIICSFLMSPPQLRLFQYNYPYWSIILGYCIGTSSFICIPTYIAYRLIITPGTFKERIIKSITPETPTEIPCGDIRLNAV

Q: Which results are given for `CC(N)Cc1ccc2c(c1)OC(F)(F)O2` (centres unmarked) [DiFMDA, Difluoromethylenedioxyamphetamine]?
A: active dose in humans [1]: > 250 mg; SERT affinity (SERT): between that of MDA and MDMA

Q: For `CC(N)Cc1ccc2c(c1)OCO2` (centres unmarked) [MDA, 3,4-methylenedioxyamphetamine], which “active dose in humans” value [1] is on record?
A: 80 to 160 mg

Q: Which results are given for `CC(Cc1ccc2c(c1)OCO2)NCCF.Cl` (centres unmarked) [MDEA-F]?
A: percent compound remaining ([2]; Time 0.0): 100.0%; percent compound remaining ([2]; Time 15.00): 81.80%; percent compound remaining ([2]; Time 30.00): 68.75%; percent compound remaining ([2]; Time 45.00): 65.35%; percent compound remaining ([2]; Time 60.00 (one hour of incubation), listed as ASR-1004): 42.05%; percent compound remaining ([2]; Time 60.00 (one hour of incubation), listed as MIDEA-F): 42%; half-life (t1/2) ([2]; estimated from slope of log % remaining versus time): about 57 minutes

Q: For `CC(Cc1ccc2c(c1)OCO2)NCC(F)(F)F` (centres unmarked) [MDTFEA, 3,4-methylenedioxy-N-trifluoroethylamphetamine], which “active dose in humans” value [1] is on record?
A: > 500 mg
